Tests used:
[1] = tested on: Staphylococcal isolates associated with joint or tissue infections; assay: deferred antagonism method, inhibition of clinical Staphylococcal isolates; assay type: cell-based, Staphylococci; design: key to Inhibition caused by NI01: NI indicates no inhibition; 1+: on a score of 1-3; 2+: on a score of 1-3; 3+: on a score of 1-3
S. epidermidis s42 [2] = assay: membrane potential, DiSC3(5) assay; assay type: cell-based; details: all concentrations assessed; levels exceeded positive control nisin 10×MIC
From the text: (§1) Results are expressed as % of positive control and that NI01 causes concentration dependent release of potassium from indicator cells with 100% being released at the highest concentration of NI01 assessed (10×MIC).
In summary, mode of action studies, using DiSC3(5) [3,3′-Dipropylthiadicarbocyanine iodide] assays, indicate that NI01 depolarises the membrane (FIG. 12) of the a Staphylococcus epidermidis strain resulting in loss of potassium (FIG. 13) and ATP (FIG. 14).

pH stability = assay type: physicochemical
[3] = enzyme stability of the peptide (activity in AU/ml after enzyme treatment)
strain 156 biofilm = assay: biofilm formation on peptide-coated polyethylene beads; assay type: cell-based, Staphylococcus epidermidis; details: beads submerged in semi-pure peptide 2 hours, inoculum 3×10^8 cfu/ml of strain 156, p=0.000
Propionibacterium acnes = assay: spot on lawn method; assay type: cell-based; details: purified preparations of NI01, spot on lawn method
[4] = tested on: reference strain RP62a, gentamicin resistant clinical isolate 53 and gentamicin sensitive isolate 156; assay: single-step (spontaneous) mutation tests; assay type: cell-based, S. epidermidis; details: two, four and eight times the MIC; strains RP62a, 53 and 156; no evidence of mutation
S. epidermidis = assay: MIC by micro-dilution (BSAC); assay type: cell-based;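 also: MIC in µg/ml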
[5] = tested on: Vancomycin resistant Enterococcus faecalis; assay: MIC by micro-dilution (BSAC); assay type: cell-based
S. epidermidis 156 = assay: viability, optical density and Gram staining after addition of peptide; assay type: cell-based
Bacillus cereus = assay: MIC by micro-dilution (BSAC); assay type: cell-based
[6] = tested on: clinical biofilm forming strains of CNS Staphylococci species associated with prosthetic joint infections; assay: passaging in sub-inhibitory concentrations; assay type: cell-based; details: for MIC after passaging: sub-inhibitory concentrations
S. saprophyticus = assay: MIC by micro-dilution (BSAC); assay type: cell-based
S. warneri = assay: MIC by micro-dilution (BSAC); assay type: cell-based
MRSA (EMRSA 15) = assay: MIC by micro-dilution (BSAC); assay type: cell-based;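 also: MIC in µg/ml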
S. aureus 1195 = assay: MIC by micro-dilution (BSAC); assay type: cell-based
S. epidermidis s42 [7] = assay: potassium release, K+ sensitive fluorescent dye PBFI; assay type: cell-based; details: highest concentration, 10×MIC
From the text: as §1

Bacillus subtillis = assay: MIC by micro-dilution (BSAC); assay type: cell-based
Listeria monocytogenes = assay: MIC by micro-dilution (BSAC); assay type: cell-based
Streptococcus mutans = assay: MIC by micro-dilution (BSAC); assay type: cell-based;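 also: MIC in µg/ml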
S. hominis = assay: MIC by micro-dilution (BSAC); assay type: cell-based
Enterococcus faecalis = assay: MIC by micro-dilution (BSAC); assay type: cell-based
S. epidermidis s42 [8] = assay: ATP release; assay type: cell-based; details: 10×MIC
[9] = following treatment with protease
[10] = Strain 11, gentamicin and methicillin resistant clinical isolate
[11] = Strain 12, gentamicin resistant clinical isolate

Substance: peptide NI01: antimicrobial peptide (bacteriocin, SEQ ID NO:3) obtained from a Staphylococcal culture; C terminal sequence QSFEWIYKQIKKLWA (MAAFMKLIQFLATKGQKYVSLAWKHKGTILKWINAGQSFEWIYKQIKKLWA; NOI01 polypeptide)
- Inhibition caused by NI01 ([1]; isolate 5133, Tissue (acetabulum), resistance: flu): 2+
- Inhibition caused by NI01 ([1]; isolate S1, Tissue, resistance: meth, pen, ery, amp, flu, gen, trim, cip): 2+
- Inhibition caused by NI01 ([1]; isolate S2, Joint fluid, resistance: pen, ery, amp, flu, gen, trim, cip): 2+
- Inhibition caused by NI01 ([1]; isolate S4, Tissue, resistance: meth, flu, gen, trim): 3+
- Inhibition caused by NI01 ([1]; isolate S5, Tissue, resistance: met): 3+
- Inhibition caused by NI01 ([1]; isolate S6, Femoral canal, resistance: flu, ery, gen, rif, cip): 1+
- Inhibition caused by NI01 ([1]; isolate S7, Femoral canal, sensitive): 1+
- Inhibition caused by NI01 ([1]; isolate S8, Tissue, resistance: flu, ery, gen, rif, cip): 1+
- Inhibition caused by NI01 ([1]; isolate S9, Tissue, resistance: flu, ery, gen, rif, cip): 3+
- Inhibition caused by NI01 ([1]; isolate S10, Tissue, resistance: flu, ery, gen, rif, cip): 1+
- Inhibition caused by NI01 ([1]; isolate S11, Tissue, resistance: flu, ery, gen, rif, cip): 2+
- Inhibition caused by NI01 ([1]; isolate S12, Tissue, resistance: flu, ery, rif, cip): 1+
- Inhibition caused by NI01 ([1]; isolate S13, Swab, resistance: flu, ery, gen, rif, cip): 1+
- Inhibition caused by NI01 ([1]; isolate S25, Swab (left hip joint), resistance: meth, gen): 2+
- Inhibition caused by NI01 ([1]; isolate S28, Tissue (femoral canal), resistance: meth, gen): 3+
- Inhibition caused by NI01 ([1]; isolate S30, Tissue (left capsule), resistance: meth): 3+
- Inhibition caused by NI01 ([1]; isolate S31, Swab (joint), sensitive): 2+
- Inhibition caused by NI01 ([1]; isolate S37, Tissue (knee), sensitive): 2+
- Inhibition caused by NI01 ([1]; isolate S39, Tissue (right knee), resistance: meth, flu, fus, cip): 1+
- Inhibition caused by NI01 ([1]; isolate S40, Tissue (right knee), resistance: meth, flu, ery, fus, clin, cip): 1+
- Inhibition caused by NI01 ([1]; isolate S41, Tissue (femoral canal), resistance: meth, flu, fus, cip): 1+
- Inhibition caused by NI01 ([1]; isolate S42, Tissue (right knee), resistance: meth, flu, fus, cip): NI
- Inhibition caused by NI01 ([1]; isolate S43, Swab (right hip joint), resistance: meth, flu, ery, fus, clin, cip): NI
- Inhibition caused by NI01 ([1]; isolate S44, Swab (right hip joint), resistance: meth, flu, ery): NI
- Inhibition caused by NI01 ([1]; isolate S46, Swab (right hip joint), resistance: meth, flu, gen, fus, cip): NI
- Inhibition caused by NI01 ([1]; isolate S47, Swab (tibia), resistance: meth, flu, ery, gen, fus, cip): NI
- Inhibition caused by NI01 ([1]; isolate S48, Tissue (left knee), resistance: meth, flu, ery, gen, fus, cip): 1+
- Inhibition caused by NI01 ([1]; isolate S49, Tissue (left knee), resistance: meth, flu, ery, gen, fus, cip): 2+
- Inhibition caused by NI01 ([1]; isolate S52, Tissue (right hip joint), resistance: gen, cip): 2+
- Inhibition caused by NI01 ([1]; isolate S53, Swab (femur), resistance: gen, cip, fus): 2+
- Inhibition caused by NI01 ([1]; isolate S56, Tissue (right hip joint), sensitive): 2+
- Inhibition caused by NI01 ([1]; isolate S60, Tissue (femur), resistance: gen, trim): NI
- Inhibition caused by NI01 ([1]; isolate S71, Swab (femur), resistance: flu): 2+
- Inhibition caused by NI01 ([1]; isolate S78, Tissue (right elbow), resistance: flu, ery): 1+
- Inhibition caused by NI01 ([1]; isolate S79, Pus (right elbow), resistance: meth, flu, ery): 1+
- Inhibition caused by NI01 ([1]; isolate S80, Tissue (triceps), resistance: flu, ery): 1+
- Inhibition caused by NI01 ([1]; isolate S81, Pus (right elbow), resistance: flu, ery): 1+
- Inhibition caused by NI01 ([1]; isolate S82, Tissue (right elbow), resistance: flu, ery): 1+
- Inhibition caused by NI01 ([1]; isolate S83, Tissue (next to bone), resistance: flu, ery): 1+
- Inhibition caused by NI01 ([1]; isolate S85, Tissue (left elbow), resistance: meth, ery): 1+
- Inhibition caused by NI01 ([1]; isolate S86, Swab (right elbow), sensitive): 2+
- Inhibition caused by NI01 ([1]; isolate S88, Swab (left hip), sensitive): 1+
- Inhibition caused by NI01 ([1]; isolate S89, Tissue (right elbow), resistance: meth, flu, ery): 1+
- Inhibition caused by NI01 ([1]; isolate S90, Ulcer, resistance: flu, ery): 2+
- Inhibition caused by NI01 ([1]; isolate S91, Swab (right acetabulum), resistance: flu): 2+
- Inhibition caused by NI01 ([1]; isolate S92, Swab (femur), resistance: flu): 1+
- Inhibition caused by NI01 ([1]; isolate S93, Tissue (wound), resistance: flu, ery, gen, fus): NI
- Inhibition caused by NI01 ([1]; isolate S94, Tissue (right femur), resistance: flu): 3+
- Inhibition caused by NI01 ([1]; isolate S95, Tissue (right femur), resistance: flu, trim): 3+
- Inhibition caused by NI01 ([1]; isolate S96, Tissue (right femur), resistance: flu): 1+
- Inhibition caused by NI01 ([1]; isolate S97, Tissue (acetabulum), resistance: flu): 3+
- Inhibition caused by NI01 ([1]; isolate S106, Neck of femur, resistance: ery, fus): 3+
- Inhibition caused by NI01 ([1]; isolate S127, Tissue (screw holes), resistance: flu): 1+
- Inhibition caused by NI01 ([1]; isolate S128, Tissue (under plate), resistance: meth, flu): 1+
- Inhibition caused by NI01 ([1]; isolate S156, Tissue (acetabulum), resistance: ery, fus): 3+
- Inhibition caused by NI01 ([1]; isolate S159, Swab (right thigh), resistance: meth, flu, ery): 1+
- Inhibition caused by NI01 ([1]; isolate S160, Swab (right hip), resistance: meth, flu, gen): 2+
- Inhibition caused by NI01 ([1]; isolate S161, Swab (right hip sinus), resistance: flu, ery, gen, fus, cip): 2+
- Inhibition caused by NI01 ([1]; isolate S163, Tissue (right hip), resistance: flu, ery, gen, fus, cip): 1+
- Inhibition caused by NI01 ([1]; isolate S164, Tissue (right hip), resistance: ery, fus, amp, clin): NI
- inhibitory effect, score ([1]; isolate Staphylococcus epidermis 156, biofilm forming, from infected acetabulum tissue, over a 100 hour period (FIG. 5)): +3
- clinical biofilm forming isolates of Staphylococci inhibited ([1]; isolates associated with joint and/or tissue infections, summary of Table 1): 58 out of the 60
- clinical biofilm forming isolates of Staphylococci inhibited, percent ([1]; summary of Table 1): 91%
- effect on membrane potential (S. epidermidis s42 [2]): rapidly depolarized the membrane
- activity lost (pH stability; acidic pH 2): about 5%
- activity lost (pH stability; alkaline pH 10): 12%
- activity retained (pH stability; between pH 4-8): 100%
- activity after treatment [3, 9]: 160 AU/ml
- reduction in activity [3, 9]: 75%
- activity before enzyme treatment ([3]; partially purified peptide, starting activity): 640 AU/ml
- activity after treatment ([3]; treatment with trypsin): 320 AU/ml
- reduction of activity ([3]; treatment with trypsin): 50%
- reduction of biofilm on coated versus uncoated polyethylene beads (strain 156 biofilm): 2.85 log units
- activity against Propionibacterium acnes (Propionibacterium acnes): activity
- mutation (single-step mutation tests) [4]: < 1.5×10^8 cfu/ml
- cells that looked apoptotic (vero cells): 10-20%
- damage to vero cells (vero cells): No significant damage
- MIC (S. epidermidis; S. epidermidis RP62a): 2 to 4 µg/mL
- MIC (S. epidermidis; S. epidermidis s1): 1 µg/mL
- MIC (S. epidermidis; S. epidermidis s2): 4 µg/mL
- MIC (S. epidermidis; S. epidermidis s37): 2 µg/mL
- MIC (S. epidermidis; S. epidermidis s42): 2 µg/mL
- MIC (S. epidermidis; S. epidermidis s44): 4 µg/mL
- MIC (S. epidermidis; S. epidermidis s60): 2 µg/mL
- MIC (S. epidermidis; S. epidermidis s93): 2 µg/mL
- MIC (S. epidermidis; S. epidermidis s156): 0.0625 µg/mL
- haemolysis (haemolysis): not haemolytic
- MIC ([5]; Vancomycin resistant Enterococcus faecalis 1): 1 µg/mL
- MIC ([5]; Vancomycin resistant Enterococcus faecalis 2): 1 µg/mL
- MIC ([5]; Vancomycin resistant Enterococcus faecalis 3): 1 µg/mL
- MIC ([5]; Vancomycin resistant Enterococcus faecalis 4): 1 to 2 µg/mL
- MIC ([5]; Vancomycin resistant Enterococcus faecalis 5): 0.5 to 1 µg/mL
- MIC ([5]; Vancomycin resistant Enterococcus faecalis 6): 0.5 µg/mL
- stained cells per field of view (Gram stain) following addition of peptide (S. epidermidis 156; at least 150 small cocci per field prior to addition): less than 20 cells per field of view
- type of activity against the target bacterium (S. epidermidis 156; from cfu count and optical density): bactericidal, but non-lytic
- cfu count after addition of peptide (S. epidermidis 156; peptide added at T=30, decrease not as pronounced in optical density): rapid decrease
- MIC (Bacillus cereus): <0.125 µg/mL
- MIC before passaging [6, 10]: 7800 µg/mL
- MIC after passaging [6, 10]: 15600 µg/mL
- MIC before passaging [6, 11]: 3900 µg/mL
- MIC after passaging [6, 11]: 7800 µg/mL
- change in MIC after passaging ([6]; all of the other strains tested (of twelve)): no change
- MIC (S. saprophyticus): 0.5 to 1 µg/mL
- MIC (S. warneri): 1 µg/mL
- MIC (MRSA (EMRSA 15); MRSA s37 (EMRSA 15)): 1 to 2 µg/mL
- MIC (MRSA (EMRSA 15); MRSA s41 (EMRSA 15)): 1 to 2 µg/mL
- MIC (MRSA (EMRSA 15); MRSA s71 (EMRSA 15)): 2 µg/mL
- MIC (S. aureus 1195): 2 µg/mL
- potassium release (S. epidermidis s42 [7]): 100 % of positive control
- MIC (Bacillus subtillis): <0.125 µg/mL
- MIC (Listeria monocytogenes): <0.125 µg/mL
- MIC (Streptococcus mutans; Streptococcus mutans 263): 2 µg/mL
- MIC (Streptococcus mutans; Streptococcus mutans 313): 0.12 µg/mL
- MIC (S. hominis): 1 µg/mL
- MIC (Enterococcus faecalis): 1 µg/mL
- ATP released (S. epidermidis s42 [8]): > 65 % of positive control

Reference: US9428551B2, “Antimicrobial peptides” (priority 2009, dated 2016)
